{
  "source": "patent US20120190734A1",
  "about": "“COMPOUNDS AND COMPOSITIONS FOR TREATING INFECTION” (priority 2011, published 2012)",
  "origin": "cited, not measured here",
  "key": {"[1]": {"test_system": "influenza virus"}, "[2]": {"test_system": "herpes simplex virus (HSV-2)"}, "[3]": {"target": "HIV-1 reverse transcriptase (Human immunodeficiency virus type 1 group M subtype B, UniProt P04585)"}, "[4]": {"test_system": "HIV-1"}},
  "data": [
    {"molecule": "O=c1cc(-c2ccc(O)cc2)oc2cc(O)cc(O)c12", "note": "[5,7,4-truhydroxyflavone]", "values": [
      {"measurement": "anti-influenza virus activity", "setting": "[1]", "result": "anti-influenza virus activity"}
    ]},
    {"molecule": "O=C(O[C@@H]1O[C@@H]2COC(=O)c3cc(O)c(O)c(O)c3-c3c(cc(O)c(O)c3O)C(=O)O[C@H]2[C@H](OC(=O)c2cc(O)c(O)c(O)c2)[C@H]1OC(=O)c1cc(O)c(O)c(O)c1)c1cc(O)c(O)c(O)c1", "note": "[Eugeniin]", "values": [
      {"measurement": "anti-herpes simplex virus (HSV-2) activity in vitro", "setting": "[2]", "result": "exhibited anti-herpes simplex virus (HSV-2) activity"}
    ]},
    {"molecule": "COC(=O)c1cc(O)c(O)c(O)c1", "note": "[methyl gallate]", "values": [
      {"measurement": "anti-herpes simplex virus (HSV-2) activity in vitro", "setting": "[2]", "result": "exhibited anti-herpes simplex virus (HSV-2) activity"}
    ]},
    {"molecule": "COCc1cc2cc(OC)c(OC)cc2c(-c2ccc3c(c2)OCO3)c1C=O", "note": "[phyllamycin B]", "values": [
      {"measurement": "effect on HIV-1 reverse transcriptase activity", "setting": "[3]", "result": "inhibitory effect"}
    ]},
    {"molecule": "COc1cc2cc3c(c(-c4ccc5c(c4)OCO5)c2cc1OC)COC3=O", "note": "[retrojusticiden B]", "values": [
      {"measurement": "effect on HIV-1 reverse transcriptase activity", "setting": "[3]", "result": "inhibitory effect"}
    ]},
    {"molecule": "Prunellin", "values": [
      {"measurement": "minimum inhibition concentration against HIV-1 in vitro", "setting": "[4]", "result": 2.2, "unit": "µg/mL"}
    ]}
  ]
}
